Laboratory results from the NIST ThermoML archive (doi:10.1016/j.tca.2014.05.034).

Assay: xn = mol fraction of the nth substance listed
Conditions: 100 kPa, Liquid; for kinematic viscosity: Capillary tube (Ostwald / Ubbelohde) method; for mass density: Pycnometric method

NCCN [ethane-1,2-diamine] + OCCOCCO
Conditions | kinematic viscosity, 298.15 K [m2/s] | kinematic viscosity, 303.15 K [m2/s] | kinematic viscosity, 308.15 K [m2/s] | kinematic viscosity, 313.15 K [m2/s] | kinematic viscosity, 318.15 K [m2/s] | mass density, 298.15 K [kg/m3] | mass density, 303.15 K [kg/m3] | mass density, 308.15 K [kg/m3] | mass density, 313.15 K [kg/m3] | mass density, 318.15 K [kg/m3]
x1 = 0.085 | 2.94e-05 | 2.32e-05 | 1.85e-05 | 1.54e-05 | 1.3e-05 | 1104.7 | 1101.3 | 1097.7 | 1094.3 | 1091
x1 = 0.164 | 3.37e-05 | 2.62e-05 | 2.07e-05 | 1.71e-05 | 1.43e-05 | 1096.3 | 1092.8 | 1089.4 | 1085.8 | 1082.5
x1 = 0.2376 | 3.68e-05 | 2.84e-05 | 2.22e-05 | 1.82e-05 | 1.51e-05 | 1087.5 | 1083.9 | 1080.3 | 1076.8 | 1073.4
x1 = 0.3062 | 3.81e-05 | 2.92e-05 | 2.27e-05 | 1.85e-05 | 1.53e-05 | 1078.1 | 1074.5 | 1070.8 | 1067.2 | 1063.6
x1 = 0.3705 | 3.7e-05 | 2.82e-05 | 2.19e-05 | 1.78e-05 | 1.47e-05 | 1068.3 | 1064.5 | 1060.8 | 1057.1 | 1053.4
x1 = 0.4308 | 3.36e-05 | 2.57e-05 | 2e-05 | 1.64e-05 | 1.35e-05 | 1057.7 | 1053.8 | 1050.1 | 1046.4 | 1042.8
x1 = 0.4874 | 2.87e-05 | 2.22e-05 | 1.74e-05 | 1.43e-05 | 1.19e-05 | 1046.5 | 1042.7 | 1039.1 | 1035.3 | 1031.7
x1 = 0.5407 | 2.31e-05 | 1.8e-05 | 1.44e-05 | 1.19e-05 | 1e-05 | 1034.6 | 1030.8 | 1027 | 1023.1 | 1019.5
x1 = 0.5909 | 1.81e-05 | 1.44e-05 | 1.15e-05 | 9.68e-06 | 8.16e-06 | 1022.5 | 1018.7 | 1015 | 1011.1 | 1007.4
x1 = 0.6384 | 1.4e-05 | 1.13e-05 | 9.35e-06 | 7.83e-06 | 6.79e-06 | 1010.7 | 1006.8 | 1003.1 | 999.3 | 995.4
x1 = 0.6834 | 1.06e-05 | 8.7e-06 | 7.27e-06 | 6.21e-06 | 5.45e-06 | 997.9 | 994 | 990 | 986.2 | 982.5
x1 = 0.7259 | 8.32e-06 | 6.95e-06 | 5.89e-06 | 5.07e-06 | 4.5e-06 | 986.3 | 982.6 | 978.9 | 975 | 971.2
x1 = 0.7663 | 6.39e-06 | 5.42e-06 | 4.66e-06 | 4.05e-06 | 3.65e-06 | 973.7 | 970.1 | 966 | 962.4 | 958.5
x1 = 0.8047 | 4.97e-06 | 4.27e-06 | 3.71e-06 | 3.28e-06 | 2.96e-06 | 961.5 | 957.5 | 953.3 | 949.5 | 945.9
x1 = 0.876 | 3.22e-06 | 2.84e-06 | 2.52e-06 | 2.26e-06 | 2.08e-06 | 938.1 | 934.4 | 930.4 | 926.6 | 922.9
x1 = 0.9408 | 2.23e-06 | 1.99e-06 | 1.8e-06 | 1.63e-06 | 1.52e-06 | 916.1 | 912.8 | 908.5 | 904.8 | 901.2
x1 = 1 | 1.56e-06 | 1.39e-06 | 1.27e-06 | 1.17e-06 | 1.08e-06 | 893.3 | 888.8 | 884.9 | 880 | 875.2
